Assay [1] has as its system Staphylococcus aureus MW2 delta-mecA (mecA-). Description: IC50 (growth, competition assay). Conditions: cefoxitin: subinhibitory. The procedure, abridged: (§1)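 Signals from DsRed (540/590) and GFP (485/520) were scaled on every plate between single-strain control medians, with No Treatment then set to 0.5. The cells were a 1:1 mix of pre-induced fluorescent S. aureus MW2 strains with and without the resistance gene, grown unshaken for 20 h at 37 °C and 90% humidity in LB in 1536-well plates under a subinhibitory drug dose set each day. Each strain's IC50 was defined as the dose halving the No Treatment signal, or the maximal signal.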

Assay [2] deals with Staphylococcus aureus MW2 (mecA+). Kind of assay: IC50 (growth, competition assay). Conditions: cefoxitin: subinhibitory. The procedure, abridged:
as §1

As a reminder, the pIC50 is the negative decadic logarithm of the IC50, by convention in mol/L. A high value points to a small IC50.

Each structure is given as a SMILES string. pIC50: −log10 of the molar value. Where a name gives a salt, the structure may show the parent alone.

`CC/C(=C(\c1ccccc1)c1ccc(OCCN(C)C)cc1)c1ccccc1` [Tamoxifen]: the pIC50 is 4.91 in assay [1] (fluorescent label: DsRed), above 5.01 in assay [1] (fluorescent label: GFP), 4.83 in assay [2] (fluorescent label: DsRed) and 4.83 in assay [2] (fluorescent label: GFP).
Take `O=C1C(SCCO)=C(SCCO)C(=O)c2ccccc21`: the negative logarithm of the IC50 (pIC50) was above 5.01 in assay [1] (fluorescent label: DsRed), above 5.01 in assay [1] (fluorescent label: GFP), 4.93 in assay [2] (fluorescent label: DsRed) and 4.79 in assay [2] (fluorescent label: GFP).
Turning to `C[C@@H](O)[C@H]1C(=O)N2C(C(=O)O)=C(S[C@@H]3CN[C@H](C(=O)N(C)C)C3)[C@H](C)[C@H]12` [MERREM], the negative-log IC50 (pIC50) in assay [1] (fluorescent label: DsRed) is 4.80; in assay [1] (fluorescent label: GFP), 4.93; in assay [2] (fluorescent label: DsRed), 4.05; in assay [2] (fluorescent label: GFP), 4.01.
Taken in the same sequence, the figures for `O=C(/C=C/c1ccc(O)cc1)c1ccc(O)cc1O` [Isoliquiritigenin] were 4.56, 4.77, 3.89 and below 3.82.
For `COc1ccc2c(c1)OC[C@@H](Cc1ccc(OC)c(OC)c1)[C@H]2O` [TETRAHYDROSAPPANONE A TRIMETHYL ETHER], the pIC50 in assay [1] (fluorescent label: DsRed), in assay [1] (fluorescent label: GFP), in assay [2] (fluorescent label: DsRed) and in assay [2] (fluorescent label: GFP) was below 3.82 in each case.
`CO/N=C1\CN(c2nc3c(cc2F)c(=O)c(C(=O)O)cn3C2CC2)CC1CN` (stereo not drawn) [FACTIVE]: the negative logarithm of the IC50 (pIC50) in assay [1] (fluorescent label: DsRed), in assay [1] (fluorescent label: GFP), in assay [2] (fluorescent label: DsRed) and in assay [2] (fluorescent label: GFP) was above 5.01 throughout.
`C=C1/C(=C\C=C2/CCC[C@]3(C)[C@@H]([C@H](C)CCCC(C)C)CC[C@@H]23)C[C@@H](O)C[C@@H]1O` [Alfacalcidol]: the negative-log IC50 (pIC50) in assay [1] (fluorescent label: DsRed), in assay [1] (fluorescent label: GFP), in assay [2] (fluorescent label: DsRed) and in assay [2] (fluorescent label: GFP) was below 3.82 throughout.
For the compound `CNC(=O)c1cc(Oc2ccc(NC(=O)Nc3ccc(Cl)c(C(F)(F)F)c3)cc2)ccn1` [Sorafenib], the pIC50 in assay [1] (fluorescent label: DsRed), in assay [1] (fluorescent label: GFP), in assay [2] (fluorescent label: DsRed) and in assay [2] (fluorescent label: GFP) was above 5.01 in each case.
For the compound `Clc1ccccc1C(c1ccccc1)(c1ccccc1)n1ccnc1` [Clotrimazole], the negative logarithm of the IC50 (pIC50) was above 5.01 in assay [1] (fluorescent label: DsRed), above 5.01 in assay [1] (fluorescent label: GFP), 4.79 in assay [2] (fluorescent label: DsRed) and 4.80 in assay [2] (fluorescent label: GFP).
Turning to `CC1(C)C=Cc2c(c3c(c4c(=O)c(-c5ccc(O)c(O)c5)coc24)OC(C)(C)CC3)O1` [ISOPOMIFERIN], the pIC50 in assay [1] (fluorescent label: DsRed) was 4.93; in assay [1] (fluorescent label: GFP), above 5.01; in assay [2] (fluorescent label: DsRed) it was 4.57; in assay [2] (fluorescent label: GFP) it was 4.58.
For `CCOC(=O)[C@@H](N)Cc1ccc(-c2cc(O[C@H](c3ccc(Cl)cc3-n3ccc(C)n3)C(F)(F)F)nc(N)n2)cc1` [LX1606 hippurate], in that order: above 5.01, above 5.01, 4.66 and 4.72.
On to `CN[C@H]1CC[C@@H](c2ccc(Cl)c(Cl)c2)c2ccccc21` [Sertraline HCl], for which the pIC50 in assay [1] (fluorescent label: DsRed) was 4.92; in assay [1] (fluorescent label: GFP), above 5.01; in assay [2] (fluorescent label: DsRed) it was 4.02; in assay [2] (fluorescent label: GFP) it was 3.95.
Taken in the same sequence, the figures for `O=c1[nH]nc(Sc2ncc([N+](=O)[O-])s2)n1-c1ccc2c(c1)OCCO2` [BI 78D3] were above 5.01, above 5.01, above 5.01 and 4.92.
`CN(C)C[C@H](O)Cn1c2ccc(Br)cc2c2cc(Br)ccc21` (racemic) [Wiskostatin]: the negative-log IC50 (pIC50) in assay [1] (fluorescent label: DsRed) was above 5.01; in assay [1] (fluorescent label: GFP) it was above 5.01; in assay [2] (fluorescent label: DsRed), 4.76; in assay [2] (fluorescent label: GFP), 4.69.
Consider `COC(=O)[C@@]1(C)CCC[C@]2(C)c3ccc(O)c(C(C)C)c3CCC12` (stereo partly drawn) [TOTAROL-19-CARBOXYLIC ACID, METHYL ESTER], for which the negative logarithm of the IC50 (pIC50) in assay [1] (fluorescent label: DsRed) is 4.18; in assay [1] (fluorescent label: GFP), 4.81; in assay [2] (fluorescent label: DsRed) it was 4.56; in assay [2] (fluorescent label: GFP) it was 4.20.
Taken in the same sequence, the figures for `Oc1c(Br)cc(Br)c2cccnc12` [FENILOR] were above 5.01, above 5.01, above 5.01 and 4.87.
Taken in the same sequence, the figures for `O=C(O)c1ccc(-n2nc(-c3ccccc3O)nc2-c2ccccc2O)cc1` [Deferasirox (Exjade)] were 4.65, 4.61, 4.04 and 4.24.
For `Cc1nc2ccccc2n1Cc1ccc(Cl)cc1` [CHLORMIDAZOLE], in that order: above 5.01, above 5.01, above 5.01 and 4.99.
`CC(=O)Oc1ccccc1C(=O)Nc1ncc([N+](=O)[O-])s1` [Nitazoxanide (Alinia, Annita)]: the pIC50 in assay [1] (fluorescent label: DsRed) was 4.66; in assay [1] (fluorescent label: GFP) it was 4.60; in assay [2] (fluorescent label: DsRed), 4.26; in assay [2] (fluorescent label: GFP), 4.24.
With `CCOc1nc2cccc(C(=O)OCc3oc(=O)oc3C)c2n1Cc1ccc(-c2ccccc2-c2noc(=O)[nH]2)cc1` [EDARBI], the negative-log IC50 (pIC50) was 4.89 in assay [1] (fluorescent label: DsRed), above 5.01 in assay [1] (fluorescent label: GFP), 4.73 in assay [2] (fluorescent label: DsRed) and 4.23 in assay [2] (fluorescent label: GFP).
Consider `CC1(C)CCC2=C(O1)c1ccccc1C(=O)C2=O` [beta-Lapachone], for which the pIC50 was above 5.01 in assay [1] (fluorescent label: DsRed), above 5.01 in assay [1] (fluorescent label: GFP), 4.89 in assay [2] (fluorescent label: DsRed) and 4.55 in assay [2] (fluorescent label: GFP).
`C[C@@H]1CN(c2c(F)c(N)c3c(=O)c(C(=O)O)cn(C4CC4)c3c2F)C[C@H](C)N1` [ZAGAM]: the negative-log IC50 (pIC50) in assay [1] (fluorescent label: DsRed), in assay [1] (fluorescent label: GFP), in assay [2] (fluorescent label: DsRed) and in assay [2] (fluorescent label: GFP) was above 5.01 throughout.
Turning to `CN[C@H]1CC[C@@H](c2ccc(Cl)c(Cl)c2)c2ccccc21` [ZOLOFT], the negative logarithm of the IC50 (pIC50) in assay [1] (fluorescent label: DsRed) was 4.51; in assay [1] (fluorescent label: GFP) it was 4.81; in assay [2] (fluorescent label: DsRed), 3.99; in assay [2] (fluorescent label: GFP) it was 3.98.
Taken in the same sequence, the figures for `Cc1ccc(Sc2ccccc2N2CCNCC2)c(C)c1` were above 5.01, 4.84, 4.36 and 4.27.
With `COc1c(N2C[C@@H]3CCCN[C@@H]3C2)c(F)cc2c(=O)c(C(=O)O)cn(C3CC3)c12` [AVELOX], the pIC50 in assay [1] (fluorescent label: DsRed), in assay [1] (fluorescent label: GFP), in assay [2] (fluorescent label: DsRed) and in assay [2] (fluorescent label: GFP) was above 5.01 in each case.
With `C[C@@H](O)[C@H]1C(=O)N2C(C(=O)[O-])=C(SC3Cn4cnc[n+]4C3)[C@H](C)[C@H]12` (stereo partly drawn) [Biapenem], the pIC50 in assay [1] (fluorescent label: DsRed) is 4.50; in assay [1] (fluorescent label: GFP), 4.61; in assay [2] (fluorescent label: DsRed) it was 3.98; in assay [2] (fluorescent label: GFP), 3.95.
Taken in the same sequence, the figures for `CC1(C)C(=O)N(CCN2CCC(C(=O)c3ccc(F)cc3)CC2)c2ccccc21` were 4.27, 4.79, 4.41 and 4.01.

The values are drawn from the supplement of paper PMC7695840.
